Test: gradient 5% acetonitrile 3 min, to 50% in 2 min, to 85% in 15 min, held 3 min, 100 µL/min
Details: column: Zorbax Extend-C18 2.1 x 50 mm; eluents: water / acetonitrile, 0.1% formic acid
How it was run: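 Values are retention times taken from adduct peaks that software picked and an analyst inspected. The pure standards were run as mixtures of ~100 molecules on HPLC linked to a quadrupole time-of-flight mass spectrometer, in positive and negative ionization mode. A Zorbax Extend-C18 column (2.1 × 50 mm, 1.8 μm) was used at 100 μL/min with water and acetonitrile, each including 0.1% formic acid.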
An RP-LC retention time of 930 s was found for `COc1ccc(-c2nnc(COc3ccc(NC(=O)c4ccccn4)cc3)o2)cc1` in this work. An RP-LC retention time of 708 s was found for `CCS(=O)(=O)N1CCCc2cc(C(=O)NCC3CCCO3)ccc21` (stereo unspecified) in this work. An RP-LC retention time of 745 s was found for `Cc1nc(OCC(=O)Nc2ccccc2Br)c2ccccc2n1` in this work. An RP-LC retention time of 745 s was found for `O=C(NCc1ccccc1F)C1CC(=O)N(c2ccc3c(c2)CCN3C(=O)C2CC2)C1` (stereo unspecified) in this work. An RP-LC retention time of 512 s was found for `CNC(=O)NCCc1c[nH]c2ncccc12` in this work. An RP-LC retention time of 761 s was found for `COC(=O)Cn1c(C)cc(=O)n2nc(-c3ccccc3C)nc12` in this work. An RP-LC retention time of 547 s was found for `Oc1cccc2ccc(N3CCOCC3)nc12` in this work. An RP-LC retention time of 802 s was found for `COc1ccc(Cl)cc1NC(=O)CSc1ccc2nnc(-c3cccc(F)c3)n2n1` in this work. An RP-LC retention time of 622 s was found for `Cn1cnc(S(=O)(=O)N2CC(n3cc(C(=O)NCC4CC4)nn3)C2)c1` in this work. An RP-LC retention time of 870 s was found for `CCc1ccc(NC(=O)N2CCC(c3nc(C(=O)N4CCCC4)c(C)o3)CC2)cc1` in this work. An RP-LC retention time of 843 s was found for `Cc1ccc(CNC(=O)N2CCC3(CC2)NC(=O)c2ccc(Cl)cc2N3C)cc1` in this work. An RP-LC retention time of 883 s was found for `CC1=C(c2cccc(Cl)c2)S(=O)(=O)N=C1N1CCCN(C(=O)NC(C)(C)C)CC1` in this work. An RP-LC retention time of 890 s was found for `O=C(Nc1ccc2c(c1)OCO2)C(=O)c1c[nH]c2ccccc12` in this work. An RP-LC retention time of 941 s was found for `COc1ccc(-c2nnc(-c3ccc(C)c(S(=O)(=O)NC(C)(C)C)c3)o2)cc1OC` in this work. An RP-LC retention time of 796 s was found for `O=C(NC1CCN(c2cc(-c3cccs3)[nH]n2)C1)c1cccc(Br)c1` (stereo unspecified) in this work. An RP-LC retention time of 617 s was found for `CCCNC(=O)c1ccc2nc(CCc3ccc(NC(=O)CCC)cc3)[nH]c2c1` in this work. An RP-LC retention time of 1270 s was found for `Cc1cccc(-c2nnc(-c3nc(N4CCCCC4C)c4ccccc4n3)o2)c1` (stereo unspecified) in this work. An RP-LC retention time of 895 s was found for `CCC(C(=O)NCCc1c[nH]c2ccc(OC)cc12)n1nc(C)c2nn(-c3ccccc3)c(C)c2c1=O` (stereo unspecified) in this work. An RP-LC retention time of 847 s was found for `O=C(Cc1cccc(F)c1)N1CCN(C(=O)c2cc(-c3cccnc3)n[nH]2)CC1` in this work. An RP-LC retention time of 680 s was found for `CCSCC[C@@H](NC(=O)CCc1c(C)c2ccc(O)c(C)c2oc1=O)C(=O)O` in this work. An RP-LC retention time of 783 s was found for `COc1ccc(OCC(=O)Nc2nc(C)cc(C)c2-c2noc(C)n2)cc1` in this work. An RP-LC retention time of 774 s was found for `Cc1cc(N2CCC(NC(=O)Nc3ccc4c(c3)OCCO4)C2=O)ccc1F` (stereo unspecified) in this work. An RP-LC retention time of 725 s was found for `O=C(NCc1cccs1)C1CCN(C(=O)c2ncn3c2COC(c2ccccc2)C3)CC1` (stereo unspecified) in this work. An RP-LC retention time of 646 s was found for `Cc1ccc(Sc2ccc(N3CCC(C(=O)N4CCN(c5ccccn5)CC4)CC3)nn2)cc1` in this work. An RP-LC retention time of 757 s was found for `CC1CCc2[nH]nc(C(=O)N3CCCCC3)c2C1` (stereo unspecified) in this work. An RP-LC retention time of 641 s was found for `CS(=O)(=O)N1CCc2nn(Cc3ccccc3)c(=O)n2CC1` in this work. An RP-LC retention time of 818 s was found for `CCc1ccc(NC(=O)CN2CCN(Cc3ccc(F)cc3)C(=O)C2=O)cc1` in this work. An RP-LC retention time of 793 s was found for `O=C(COc1ccc2c3c(c(=O)oc2c1)CCC3)N[C@H](Cc1c[nH]c2ccccc12)C(=O)O` in this work. An RP-LC retention time of 609 s was found for `O=C(c1ccc(N2CCCCS2(=O)=O)cc1)N1CCN(C(=O)c2ccco2)CC1` in this work. An RP-LC retention time of 645 s was found for `COC1CCOC2(CCN(C(=O)c3ccco3)CC2)C1` (stereo unspecified) in this work. An RP-LC retention time of 619 s was found for `CCCS(=O)(=O)N1C[C@@H](COC)[C@H](c2ccccn2)C1` in this work. An RP-LC retention time of 746 s was found for `O=C(c1ccc(-c2cccnc2)nc1)N1CCN(c2ccc(Cl)cc2)CC1` in this work. An RP-LC retention time of 787 s was found for `COCCn1cc(CC(=O)Nc2cccc(SC)c2)c2cccnc21` in this work. An RP-LC retention time of 910 s was found for `Cc1ccc(S(=O)(=O)N2C(=O)CCC2C(=O)NCc2nc(-c3cccc(C)c3)no2)cc1` (stereo unspecified) in this work. An RP-LC retention time of 742 s was found for `CCc1nc2cccnc2n1CCN1CCN(C(=O)Nc2ccc(C)c(Cl)c2)CC1` in this work. An RP-LC retention time of 964 s was found for `Cc1ccc(C(=O)NCc2nc(-c3ccc(-c4csc(C)n4)cc3)no2)cc1` in this work. An RP-LC retention time of 976 s was found for `CCCCOC(=O)c1ccc(NC(=O)c2ccc(N3CCCCS3(=O)=O)cc2)cc1` in this work. An RP-LC retention time of 982 s was found for `CS(=O)(=O)Nc1ccc([N+](=O)[O-])cc1OC1CCCCC1` in this work. An RP-LC retention time of 992 s was found for `CCN1C(=O)COc2ccc(-c3noc(C4CC(=O)N(c5ccc(C)c(C)c5)C4)n3)cc21` (stereo unspecified) in this work. An RP-LC retention time of 616 s was found for `O=C(Cn1ccc2ccc(N3CCOCC3)nc21)N1CCN(c2ccccn2)CC1` in this work. An RP-LC retention time of 884 s was found for `O=C1COc2ccc(-c3csc(NC(=O)C4CCCCC4)n3)cc2N1` in this work. An RP-LC retention time of 929 s was found for `CCOC(=O)c1[nH]c(C)c(CN(Cc2ccc3c(c2)OCO3)C(=O)C2CC2)c1C` in this work. An RP-LC retention time of 794 s was found for `CC(C)n1c(N2CCCN(C(=O)c3cccs3)CC2)cc(=O)n(C(C)C)c1=O` in this work. An RP-LC retention time of 1130 s was found for `CCOc1ccc(C2Cn3nnc(-c4nc(-c5ccc(F)cc5)no4)c3CO2)cc1` (stereo unspecified) in this work. An RP-LC retention time of 765 s was found for `CCS(=O)(=O)c1ccc(-c2ccc(NC(=O)c3ccc(Br)o3)cc2)nn1` in this work. An RP-LC retention time of 804 s was found for `Cc1nc2nc(C)c(CCC(=O)N3CCC(Cc4ccccc4)CC3)c(C)n2n1` in this work. An RP-LC retention time of 919 s was found for `CCn1c(=O)c(N2CCN(C(=O)NC3CCCCC3)CC2)nc2ccccc21` in this work. An RP-LC retention time of 1040 s was found for `Cc1nc2cc(-c3noc(-c4nn(C)c5ccccc45)n3)ccc2o1` in this work. An RP-LC retention time of 795 s was found for `COc1cc(-c2nc(Cn3cnc4ccccc4c3=O)no2)cc(OC)c1OC` in this work. An RP-LC retention time of 680 s was found for `O=C(NCc1ccc(F)cc1F)c1ccc2ncnc(N3CCCCC3)c2c1` in this work. An RP-LC retention time of 748 s was found for `C[C@@H](C(=O)NCC1(CC(=O)O)CCCCC1)n1nnc2ccccc2c1=O` in this work. An RP-LC retention time of 736 s was found for `COC(=O)C(C)NC(=O)N1CCCN(C2=NS(=O)(=O)C(c3ccc(C)cc3)=C2C)CC1` (stereo unspecified) in this work. An RP-LC retention time of 708 s was found for `COc1ccccc1Oc1ccc(S(=O)(=O)NCC(=O)O)cc1` in this work. An RP-LC retention time of 1080 s was found for `CCCN1C(=O)COc2ccc(-c3noc(Cc4cc(OC)cc(OC)c4)n3)cc21` in this work. An RP-LC retention time of 716 s was found for `CC(=O)NCC(=O)N1[C@@H]2CC[C@H]1c1ccc(Nc3ncc(C(F)(F)F)c(NC4CCC4)n3)cc12` in this work. An RP-LC retention time of 1120 s was found for `O=C(NC1CCc2ccccc21)C1CCN(c2ncccc2-c2nc(-c3ccccc3)no2)CC1` (stereo unspecified) in this work. An RP-LC retention time of 844 s was found for `Cc1cc2c(cc1S(=O)(=O)NC1CC1)N(C(=O)C1CCC1)CC2` in this work. An RP-LC retention time of 927 s was found for `COc1ccc(NC(=O)Cn2c(C)cc(-c3nnc(-c4ccccc4)o3)c2C)cc1` in this work. An RP-LC retention time of 523 s was found for `Cc1nc([C@@H]2CN(C(=O)CCc3c(C)n[nH]c3C)C[C@H]2C(N)=O)n[nH]1` in this work. An RP-LC retention time of 1190 s was found for `Cc1cccc(Nc2nc(-c3ccc([N+](=O)[O-])cc3)cs2)c1` in this work. An RP-LC retention time of 736 s was found for `CSc1nnc(-c2nn(C)c3c2CN(C(=O)c2ccc(Cl)cc2)CC3)n1C` in this work. An RP-LC retention time of 941 s was found for `COc1ccc(-c2nnc(COc3cccc(NC(=O)c4ccccn4)c3)o2)cc1` in this work. An RP-LC retention time of 773 s was found for `CCC(C(=O)Nc1ccc2c(c1)OCO2)n1cnc2nc3c(cc2c1=O)CCCC3` (stereo unspecified) in this work. An RP-LC retention time of 675 s was found for `CC(C)n1cnc2cc(CNC(=O)c3cccc(C(F)(F)F)c3)ccc21` in this work. An RP-LC retention time of 982 s was found for `COc1ccc(C)cc1NC(=O)C(=O)c1ccc[nH]1` in this work. An RP-LC retention time of 1130 s was found for `Cc1cccc(Nc2nc(-c3ccc(C(C)C)cc3)cs2)n1` in this work.

— the METLIN SMRT retention time set (Domingo-Almenara et al. 2019)
